Assay results taken from publication PMC3913682, “A Monoclonal Antibody TrkB Receptor Agonist as a Potential Therapeutic for Huntington’s Disease” (PLoS ONE, 2014).

Key:
[1] = Solubility assay under CellSensor assay conditions (HPLC-UV); format: physicochemical; conditions: for Concentration @ t = 0: 0 hours; for Concentration @ t = 0 / Concentration @ t = 3 / Concentration @ t = 7: assay buffer, 0.5% DMSO; for Concentration @ t = 3: 3 hours; for Concentration @ t = 7: 7 hours
Protocol: To align with the functional data, all compound samples and dilutions were prepared using the CellSensor® assay conditions that include: assay buffer, plates, sample volumes and the same timeframe. The assay incubation time was 7 hours. 0, 3 and 7 hour samples were analysed, in triplicate, in the final assay buffer (DMEM/Glutamax + NEAA + 20 mM Hepes pH7.4 + 0.01% BSA, final DMSO concentration 0.5%) at nominal compound concentrations of 5, 20 and 50 µM. […] The 7 and 3 hour samples were prepared at times which allowed simultaneous filtering and sample analysis.

TrkB [2] = target: T1, TrkB (Homo sapiens, UniProt Q16620); parameters: host or cells: CHO-K1; conditions: cited from earlier work
striatal neurons = test: Primary neuronal mHTT-induced cell death assay (cortico-striatal co-culture); format: cell-based, rat
Text: Cortical and striatal neurons were isolated from E18 rat embryos and separately transfected with a HTT exon1 fragment containing 73 CAG repeats (HTTN90Q73), together with a plasmid encoding for either a green AcGFP or a red AsRed fluorescent reporter before being plated on glial cells and treated with candidate pharmacological agents. After 5 days in culture, the number of fluorescent cells remaining was counted using an automated high content imaging and analysis platform (GE Healthcare InCell 2000) and any changes in neuronal survival quantified.

TrkB phosphorylation = test: Western blot of TrkB phosphorylation in rat primary cortico-striatal co-cultures; format: cell-based; conditions: 15 minutes; non-transfected; Figure 7B, C
Text: (§1) Clarified cell lysates were resolved by SDS-PAGE, blotted onto nitrocellulose membranes and immunoprobed with the relevant primary and secondary antibody combinations. Anti-pTrkB Tyr^516 (4619), anti-pTrkB Tyr^706/707 (4621), anti-pTrkB, Tyr^816 (4168), anti-pERK1/2 […], anti-pAKT […], anti-TrkB (4603), anti-AKT (4685) and anti-ERK1/2 (4695) were sourced from Cell Signalling Technologies. Anti-GAPDH (IMG-5143A) was obtained from Imgenex; Goat anti-rabbit HRP conjugate (PO448) and Goat anti-mouse HRP conjugate (PO447) were sourced from Dako. Goat anti-mouse 800CW conjugate and Goat anti-rabbit 680 conjugate were sourced from LI-COR. Immunoreactive signals were detected using enhanced chemiluminescence reagent (Amersham) or using the Odyssey infra-red reader.

[3] = test system: Hippocampal HT-22 (TrkB-null cell line); parameters: method as in PMID 21651962; conditions: cited from earlier work
TrkB [4] = target: T1, TrkB; test: CellSensor TrkB-NFAT-bla CHO-K1 reporter gene assay (agonist, antagonist, PAM modes); format: cell-based; parameters: host or cells: CHO-K1
Protocol: The assays were configured using Invitrogen CHO-K1 cell lines stably expressing a β-lactamase gene under the control of a NFAT promoter region and the relevant Trk (A, B or C) receptor (except for the Trk null cell line). The activity of the β-lactamase enzyme was quantified via FRET with a fluorescent substrate containing a β-lactam ring, according to manufacturer’s provided protocol. All CellSensor® NFAT-bla CHO-K1 cell lines were seeded into black 384w assay plates in CellSensor® plating media (growth media without antibiotics) at 5,000 cells in a volume of 25 µL per well; cells were incubated at 37°C, 5% CO2 overnight. Then, the assay plating media was removed and replaced with 32 µL of assay media (plating media without serum) and returned to the incubator for 1 hour. […] Test compounds were added (4 µL) and cells were returned to the incubator for 1 hour; dependent on assay mode (agonist, antagonist or positive allosteric modulator) assay media alone (agonist mode), assay media containing EC80 neurotrophin (antagonist mode) or assay media containing EC20 neurotrophin (PAM mode) were then added to the cells (4 µL) for a further 4 hour incubation. ToxBLAzer detection reagent was reconstituted according to the manufacturer’s instructions and 8 µL/well added to the assay plates, these were then incubated at room temperature protected from light for 2 hours. Levels of β-lactamase activity were then quantified by measuring the fluorescent intensity ratio between ^EX400nm/^EM535nm and ^EX400nm/^EM460nm and cytotoxicity quantified by measuring the fluorescence intensity at ^EX590nm/^EM665nm using a Perkin Elmer EnVision.

TrkB [5] = target: T1, TrkB; parameters: method as in PMID 19549602; conditions: hippocampal neurons; cited from earlier work
TrkB [6] = test system: TrkB; parameters: method as in PMID 20407211; conditions: hippocampal neurons; cited from earlier work
[7] = test system: TrkB, AKT and ERK1/2 phosphorylation; test: Western blot of TrkB, AKT and ERK1/2 phosphorylation in TrkB-NFAT-bla CHO-K1 cells; format: cell-based; conditions: Figure 6E; for Basal phospho-ERK1/2 immunoreactive bands: LM22A-4 at low (10 µM) and high (83 µM), N-acetyl serotonin at high (83 µM) concentration
Text: as §1

[8] = test system: Trk null-NFAT-bla CHO-K1 cells; test: CellSensor Trk null-NFAT-bla CHO-K1 reporter gene assay; format: cell-based; conditions: Cricetulus griseus, Figure 2D, 5 hours
Protocol: The assays were configured using Invitrogen CHO-K1 cell lines stably expressing a β-lactamase gene under the control of a NFAT promoter region and the relevant Trk (A, B or C) receptor (except for the Trk null cell line). The activity of the β-lactamase enzyme was quantified via FRET with a fluorescent substrate containing a β-lactam ring, according to manufacturer’s provided protocol. All CellSensor® NFAT-bla CHO-K1 cell lines were seeded into black 384w assay plates in CellSensor® plating media (growth media without antibiotics) at 5,000 cells in a volume of 25 µL per well; cells were incubated at 37°C, 5% CO2 overnight. Then, the assay plating media was removed and replaced with 32 µL of assay media (plating media without serum) and returned to the incubator for 1 hour. […] Levels of β-lactamase activity were then quantified by measuring the fluorescent intensity ratio between ^EX400nm/^EM535nm and ^EX400nm/^EM460nm and cytotoxicity quantified by measuring the fluorescence intensity at ^EX590nm/^EM665nm using a Perkin Elmer EnVision.

TrkB [9] = target: T1, TrkB; test: DiscoveRx PathHunter U2OS TrkB enzyme fragment complementation (EFC) assay; format: cell-based; conditions: Figure 6C; read-out: BDNF potency (EC50), PathHunter EFC, agonist mode
Text: The assay was configured using DiscoveRx PathHunter® U2OS cell line stably co-expressing two cDNAs: a ProLink™ (PK) tagged TrkB receptor and an Enzyme Acceptor (EA) tagged SH2 domain. Activation of the TrkB-PK receptor induces receptor dimerization and trans-phosphorylation, leading to SH2-EA recruitment, and thereby forcing complementation of the two β-galactosidase enzyme fragments (EA and PK). The resulting functional enzyme hydrolyzes substrate to generate a chemiluminescent signal. U2OS-TrkB PathHunter® cells were seeded into white 384w assay plates in plating media (1x MEM; 0.5% v/v horse serum) at 10,000 cells in a volume of 20 µL per well, cells were incubated at 37°C, 5% CO2 overnight to adhere to assay plates. Test compounds were added (5 µL) to the cells and the plates were returned to the incubator for 1 hour; dependent on assay mode (agonist, antagonist or positive allosteric modulator) assay media alone (agonist mode), assay media containing EC80 BDNF (antagonist mode) or assay media containing EC20 BDNF (PAM mode) were then added to the cells (5 µL) for a further 4 hour incubation at room temperature. PathHunter® detection reagent was then added (15 µL/well) and incubated at room temperature protected from light for 1 hour. Levels of β-galactosidase activity were then quantified by measuring the chemiluminescent signal obtained using a Perkin Elmer EnVision.

T1 sequence (Q16620 32-822): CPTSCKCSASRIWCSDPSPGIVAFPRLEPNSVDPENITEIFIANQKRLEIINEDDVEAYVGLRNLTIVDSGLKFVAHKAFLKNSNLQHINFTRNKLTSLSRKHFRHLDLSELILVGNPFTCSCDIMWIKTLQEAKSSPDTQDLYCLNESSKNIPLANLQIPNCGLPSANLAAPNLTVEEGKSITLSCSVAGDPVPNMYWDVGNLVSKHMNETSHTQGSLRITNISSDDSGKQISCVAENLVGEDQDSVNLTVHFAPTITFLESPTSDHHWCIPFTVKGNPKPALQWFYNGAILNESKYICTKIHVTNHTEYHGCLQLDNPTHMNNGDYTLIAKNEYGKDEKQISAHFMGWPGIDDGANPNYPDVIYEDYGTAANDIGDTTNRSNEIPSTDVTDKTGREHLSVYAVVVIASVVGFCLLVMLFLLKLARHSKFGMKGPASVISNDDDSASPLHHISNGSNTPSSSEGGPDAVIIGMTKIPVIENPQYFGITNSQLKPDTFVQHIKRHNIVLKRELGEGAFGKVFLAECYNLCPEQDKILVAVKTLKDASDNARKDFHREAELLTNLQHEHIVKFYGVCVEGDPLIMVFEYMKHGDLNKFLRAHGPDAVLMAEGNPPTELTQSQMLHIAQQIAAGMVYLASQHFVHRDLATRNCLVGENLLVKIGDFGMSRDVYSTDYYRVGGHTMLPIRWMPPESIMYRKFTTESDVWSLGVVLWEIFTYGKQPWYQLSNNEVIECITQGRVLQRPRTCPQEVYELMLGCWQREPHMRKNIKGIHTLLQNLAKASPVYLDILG

Molecule	Concentration @ t = 0 ([1]; nominal concentration 5 µM) [µM]	Concentration @ t = 3 ([1]; nominal concentration 5 µM) [µM]	Concentration @ t = 7 ([1]; nominal concentration 5 µM) [µM]	Concentration @ t = 0 ([1]; nominal concentration 20 µM) [µM]	Concentration @ t = 3 ([1]; nominal concentration 20 µM) [µM]	Concentration @ t = 7 ([1]; nominal concentration 20 µM) [µM]	Concentration @ t = 0 ([1]; nominal concentration 50 µM) [µM]	Concentration @ t = 3 ([1]; nominal concentration 50 µM) [µM]	Concentration @ t = 7 ([1]; nominal concentration 50 µM) [µM]	Published in vitro activity (in words) (TrkB [2])	Published in vitro activity: Activity (TrkB [2]) [nM]	also measured
O=c1cc(-c2ccccc2)oc2c(O)c(O)ccc12 [7,8-dihydroxyflavone]	0.49	0.24	2.3	3.0	1.9	5.2	13	10	13	Neuronal TrkB agonist; Promotes neurogenesis	10 to 250	Compound remaining in solution ([1]; beyond the tested lower concentration of 5 µM, NFAT assay solutions): ~20%; Protection of striatal neurons from mHTT-induced cell death (in words) (striatal neurons; Figure 7A): failed to mimic the ability of BDNF; Concentrations at which toxicity was evident (striatal neurons; rat cortico-striatal co-culture): ≥ 20 µM; Induction of TrkB phosphorylation (in words) (TrkB phosphorylation): failed to mimic the ability of BDNF; Concentrations showing toxicity effects, HT-22 cell viability [3]: above 20 µM
CN(C)CCC=C1c2ccccc2CCc2ccccc21 [Amitriptyline]	3.7	4.3	3.2	7.6	7.1	5.9	33	27	27	Neuronal TrkA/B agonist; Neuroprotective	10 to 250	PAM activity, NFAT reporter gene assay, PAM mode (in words) (TrkB [4]; Figure 6B, in presence of ~EC20 BDNF (40 pM)): concentration-dependent TrkB inhibition; Potency relative to the cognate neurotrophin (less potent) (TrkB [5]): ~100 fold
O=C(NCCO)c1cc(C(=O)NCCO)cc(C(=O)NCCO)c1 [LM22A-4]	7.2	7.8	11	17	17	20	59	58	64	TrkB agonist; Neuroprotective	0.5 to 500	Protection of striatal neurons from mHTT-induced cell death (in words) (striatal neurons; Figure 7A): failed to mimic the ability of BDNF; Induction of TrkB-Tyr516 phosphorylation (TrkB [6]): ~30 % of the efficacy of BDNF; Induction of TrkB phosphorylation (in words) (TrkB phosphorylation): failed to mimic the ability of BDNF; Basal phospho-ERK1/2 immunoreactive bands [7]: absence of immunoreactive bands
C/C=C(/C)C(=O)O[C@H]1C(C)=C2[C@H]([C@@H]1OC(=O)CCCCCCC)[C@@](C)(OC(C)=O)C[C@H](OC(=O)CCC)[C@@]1(O)[C@H]2OC(=O)[C@@]1(C)O [Thapsigargin]												EC50 [8]: 1600 pM
COc1ccc(C(=O)c2cn(C(C)C)c3ncnc(N)c23)cc1NC(=O)Nc1ccc(Cl)cc1Cl [pan-Trk kinase inhibitor, 1-(5-(4-amino-7-isopropyl-7H-pyrrolo[2,3-d]pyrimidine-5-carbonyl)-2-methoxyphenyl)-3-(2,4-dichlorophenyl)urea]												Effect on antibody effects in striatal neurons (striatal neurons; data not shown): reversed; Effect on induction of NFAT activity by TrkB mAbs (TrkB [4]; co-incubation, pan-Trk inhibitor 100 nM): completely prevented
Brain-derived neurotrophic factor (protein, UniProt P23560 19-247, looked up, Neuroprotective secreted protein, cognate neurotrophin of TrkB) Neurotrophic factor BDNF …: APMKEANIRGQGGLAYPGVRTHGTLESVNGPKAGSRGLTSLADTFEHVIEELLDEDQKVRPNEENNKDADLYTSRVMLSSQVPLEPPLLFLLEEYKNYLDAANMSMRVRRHSDPARRGELSVCDSISEWVTAADKKTAVDMSGGTVTVLEKVPVSKGQLKQYFYETKCNPMGYTKEGCRGIDKRHWNSQCRTTQSYVRALTMDSKKRIGWRFIRIDTSCVCTLTIKRGR												EC50 (striatal neurons; Figure 7A, normalized to 1 nM BDNF (100% Rescue) and vehicle (0%), read-out: EC50, % Rescue of striatal neurons from mHTT-induced cell death): 214 pM; EC50 (TrkB [4]; Figure 4A, 5 hours, read-out: EC50, TrkB-NFAT-bla reporter, agonist mode): 145 pM; EC50 (TrkB [4]; Figure 6A, read-out: BDNF potency (EC50), CellSensor NFAT reporter, agonist mode): 323 pM; TrkB, ERK1/2 and AKT phosphorylation (pathway activation) ([7]; 5 hours treatment): induced phosphorylation of TrkB, ERK1/2 and AKT; EC50 (TrkB [9]): 823 pM

The next lines start with results.

Concentration @ t = 0 ([1]; nominal concentration 5 µM) [µM]	Concentration @ t = 3 ([1]; nominal concentration 5 µM) [µM]	Concentration @ t = 7 ([1]; nominal concentration 5 µM) [µM]	Concentration @ t = 0 ([1]; nominal concentration 20 µM) [µM]	Concentration @ t = 3 ([1]; nominal concentration 20 µM) [µM]	Concentration @ t = 7 ([1]; nominal concentration 20 µM) [µM]	Concentration @ t = 0 ([1]; nominal concentration 50 µM) [µM]	Concentration @ t = 3 ([1]; nominal concentration 50 µM) [µM]	Concentration @ t = 7 ([1]; nominal concentration 50 µM) [µM]	Molecule	Published in vitro activity (in words) (TrkB [2])	Published in vitro activity: Activity (TrkB [2]) [nM]	also measured
7.6	8.8	10	13	14	17	38	44	49	CC(=O)NCCc1c[nH]c2ccc(O)cc12 [N-acetyl serotonin]	Neuronal TrkB agonist	100	Basal phospho-ERK1/2 immunoreactive bands [7]: absence of immunoreactive bands
2.8	3.0	3.7	3.4	2.9	4.5	6.7	4.5	6.9	COC(=O)[C@H]1[C@H]2C[C@@H]3c4[nH]c5cc(OC)ccc5c4CCN3C[C@H]2C[C@@H](OC(=O)c2cc(OC)c(OC)c(OC)c2)[C@@H]1OC [Reserpine]			
